System: Kv3.1 α-subunit mRNA
Experiment: Experiment 1: in situ hybridization of Kv3.1 α-subunit mRNA in brain, chronic PCP rat model of schizophrenia with antipsychotic co-treatment
Assay type: in vivo

## Cc1cc2c(s1)Nc1ccccc1N=C2N1CCN(C)CC1 [Olanzapine, olanzapine]
ACg, PCP + drug 0.3 mg/kg/day
  Kv3.1 α-subunit mRNA expression: 15.83 ± 0.73 PSL/mm^2
ACg, PCP + drug 1 mg/kg/day
  Kv3.1 α-subunit mRNA expression: 14.83 ± 1.00 PSL/mm^2
ACg, PCP + drug 3 mg/kg/day
  Kv3.1 α-subunit mRNA expression: 16.31 ± 0.40 PSL/mm^2
ACg, PCP + drug 10 mg/kg/day
  Kv3.1 α-subunit mRNA expression: 15.03 ± 0.72 PSL/mm^2
AcbC, PCP + drug 0.3 mg/kg/day
  Kv3.1 α-subunit mRNA expression: 8.59 ± 0.58 PSL/mm^2
AcbC, PCP + drug 1 mg/kg/day
  Kv3.1 α-subunit mRNA expression: 8.12 ± 0.67 PSL/mm^2
AcbC, PCP + drug 3 mg/kg/day
  Kv3.1 α-subunit mRNA expression: 8.55 ± 0.25 PSL/mm^2
AcbC, PCP + drug 10 mg/kg/day
  Kv3.1 α-subunit mRNA expression: 8.27 ± 0.31 PSL/mm^2
AcbS, PCP + drug 0.3 mg/kg/day
  Kv3.1 α-subunit mRNA expression: 11.42 ± 0.73 PSL/mm^2
AcbS, PCP + drug 1 mg/kg/day
  Kv3.1 α-subunit mRNA expression: 10.43 ± 0.56 PSL/mm^2
AcbS, PCP + drug 3 mg/kg/day
  Kv3.1 α-subunit mRNA expression: 11.62 ± 0.84 PSL/mm^2
AcbS, PCP + drug 10 mg/kg/day
  Kv3.1 α-subunit mRNA expression: 11.95 ± 1.02 PSL/mm^2
Au1, PCP + drug 0.3 mg/kg/day
  Kv3.1 α-subunit mRNA expression: 18.60 ± 1.75 PSL/mm^2
Au1, PCP + drug 1 mg/kg/day
  Kv3.1 α-subunit mRNA expression: 18.68 ± 0.80 PSL/mm^2
Au1, PCP + drug 3 mg/kg/day
  Kv3.1 α-subunit mRNA expression: 17.42 ± 1.46 PSL/mm^2
Au1, PCP + drug 10 mg/kg/day
  Kv3.1 α-subunit mRNA expression: 16.91 ± 0.86 PSL/mm^2
CA1pd, PCP + drug 0.3 mg/kg/day
  Kv3.1 α-subunit mRNA expression: 19.98 ± 1.59 PSL/mm^2
CA1pd, PCP + drug 1 mg/kg/day
  Kv3.1 α-subunit mRNA expression: 19.14 ± 2.06 PSL/mm^2
CA1pd, PCP + drug 3 mg/kg/day
  Kv3.1 α-subunit mRNA expression: 18.37 ± 1.54 PSL/mm^2
CA1pd, PCP + drug 10 mg/kg/day
  Kv3.1 α-subunit mRNA expression: 20.15 ± 1.22 PSL/mm^2
CA2pd, PCP + drug 0.3 mg/kg/day
  Kv3.1 α-subunit mRNA expression: 21.36 ± 2.52 PSL/mm^2
CA2pd, PCP + drug 1 mg/kg/day
  Kv3.1 α-subunit mRNA expression: 17.72 ± 1.86 PSL/mm^2
CA2pd, PCP + drug 10 mg/kg/day
  Kv3.1 α-subunit mRNA expression: 20.59 ± 1.35 PSL/mm^2
CA3pd, PCP + drug 0.3 mg/kg/day
  Kv3.1 α-subunit mRNA expression: 33.71 ± 3.48 PSL/mm^2
CA3pd, PCP + drug 1 mg/kg/day
  Kv3.1 α-subunit mRNA expression: 30.50 ± 1.94 PSL/mm^2
CA3pd, PCP + drug 3 mg/kg/day
  Kv3.1 α-subunit mRNA expression: 33.46 ± 2.04 PSL/mm^2
CA3pd, PCP + drug 10 mg/kg/day
  Kv3.1 α-subunit mRNA expression: 32.81 ± 1.82 PSL/mm^2
DGgd, PCP + drug 0.3 mg/kg/day
  Kv3.1 α-subunit mRNA expression: 35.22 ± 1.16 PSL/mm^2
DGgd, PCP + drug 1 mg/kg/day
  Kv3.1 α-subunit mRNA expression: 33.04 PSL/mm^2
DGgd, PCP + drug 3 mg/kg/day
  Kv3.1 α-subunit mRNA expression: 36.51 ± 1.07 PSL/mm^2
DGgd, PCP + drug 10 mg/kg/day
  Kv3.1 α-subunit mRNA expression: 38.16 ± 1.10 PSL/mm^2
IL, PCP + drug 0.3 mg/kg/day
  Kv3.1 α-subunit mRNA expression: 12.00 ± 0.65 PSL/mm^2
IL, PCP + drug 1 mg/kg/day
  Kv3.1 α-subunit mRNA expression: 11.27 ± 1.08 PSL/mm^2
IL, PCP + drug 3 mg/kg/day
  Kv3.1 α-subunit mRNA expression: 11.40 ± 0.41 PSL/mm^2
IL, PCP + drug 10 mg/kg/day
  Kv3.1 α-subunit mRNA expression: 12.15 ± 0.62 PSL/mm^2
IO, PCP + drug 0.3 mg/kg/day
  Kv3.1 α-subunit mRNA expression: 15.50 ± 0.51 PSL/mm^2
IO, PCP + drug 1 mg/kg/day
  Kv3.1 α-subunit mRNA expression: 16.18 ± 0.32 PSL/mm^2
IO, PCP + drug 3 mg/kg/day
  Kv3.1 α-subunit mRNA expression: 16.83 ± 0.79 PSL/mm^2
IO, PCP + drug 10 mg/kg/day
  Kv3.1 α-subunit mRNA expression: 17.74 ± 0.37 PSL/mm^2
M1, PCP + drug 0.3 mg/kg/day
  Kv3.1 α-subunit mRNA expression: 15.83 ± 0.69 PSL/mm^2
M1, PCP + drug 1 mg/kg/day
  Kv3.1 α-subunit mRNA expression: 16.17 ± 1.27 PSL/mm^2
M1, PCP + drug 3 mg/kg/day
  Kv3.1 α-subunit mRNA expression: 16.17 ± 0.79 PSL/mm^2
M1, PCP + drug 10 mg/kg/day
  Kv3.1 α-subunit mRNA expression: 16.27 ± 0.37 PSL/mm^2
M2, PCP + drug 3 mg/kg/day
  Kv3.1 α-subunit mRNA expression: 14.48 ± 0.90 PSL/mm^2
MG, PCP + drug 0.3 mg/kg/day
  Kv3.1 α-subunit mRNA expression: 26.64 ± 2.22 PSL/mm^2
MM, PCP + drug 10 mg/kg/day
  Kv3.1 α-subunit mRNA expression: 4.69 ± 2.24 PSL/mm^2
Pir, PCP + drug 0.3 mg/kg/day
  Kv3.1 α-subunit mRNA expression: 37.73 ± 1.18 PSL/mm^2
Pir, PCP + drug 1 mg/kg/day
  Kv3.1 α-subunit mRNA expression: 36.82 ± 0.51 PSL/mm^2
Pir, PCP + drug 3 mg/kg/day
  Kv3.1 α-subunit mRNA expression: 43.78 ± 1.20 PSL/mm^2
Pir, PCP + drug 10 mg/kg/day
  Kv3.1 α-subunit mRNA expression: 40.66 ± 2.21 PSL/mm^2
RSa, PCP + drug 0.3 mg/kg/day
  Kv3.1 α-subunit mRNA expression: 16.53 ± 1.13 PSL/mm^2
RSa, PCP + drug 1 mg/kg/day
  Kv3.1 α-subunit mRNA expression: 16.92 ± 0.74 PSL/mm^2
RSa, PCP + drug 3 mg/kg/day
  Kv3.1 α-subunit mRNA expression: 18.21 ± 1.15 PSL/mm^2
RSa, PCP + drug 10 mg/kg/day
  Kv3.1 α-subunit mRNA expression: 18.77 ± 1.07 PSL/mm^2
RSg, PCP + drug 0.3 mg/kg/day
  Kv3.1 α-subunit mRNA expression: 19.48 ± 0.72 PSL/mm^2
RSg, PCP + drug 1 mg/kg/day
  Kv3.1 α-subunit mRNA expression: 19.43 ± 1.20 PSL/mm^2
RSg, PCP + drug 3 mg/kg/day
  Kv3.1 α-subunit mRNA expression: 20.96 ± 1.08 PSL/mm^2
RSg, PCP + drug 10 mg/kg/day
  Kv3.1 α-subunit mRNA expression: 19.59 ± 0.92 PSL/mm^2
VMStr, PCP + drug 3 mg/kg/day
  Kv3.1 α-subunit mRNA expression: 7.52 PSL/mm^2
VMStr, PCP + drug 10 mg/kg/day
  Kv3.1 α-subunit mRNA expression: 5.99 ± 0.28 PSL/mm^2
VO, PCP + drug 0.3 mg/kg/day
  Kv3.1 α-subunit mRNA expression: 19.03 ± 1.00 PSL/mm^2
VO, PCP + drug 1 mg/kg/day
  Kv3.1 α-subunit mRNA expression: 18.35 ± 1.04 PSL/mm^2
VO, PCP + drug 3 mg/kg/day
  Kv3.1 α-subunit mRNA expression: 18.96 ± 0.86 PSL/mm^2
VO, PCP + drug 10 mg/kg/day
  Kv3.1 α-subunit mRNA expression: 19.88 ± 0.58 PSL/mm^2
dRt, PCP + drug 0.3 mg/kg/day
  Kv3.1 α-subunit mRNA expression: 50.99 ± 2.22 PSL/mm^2
dRt, PCP + drug 1 mg/kg/day
  Kv3.1 α-subunit mRNA expression: 50.92 ± 3.80 PSL/mm^2
dRt, PCP + drug 3 mg/kg/day
  Kv3.1 α-subunit mRNA expression: 52.87 ± 1.95 PSL/mm^2
dRt, PCP + drug 10 mg/kg/day
  Kv3.1 α-subunit mRNA expression: 52.42 ± 1.19 PSL/mm^2
vRt, PCP + drug 0.3 mg/kg/day
  Kv3.1 α-subunit mRNA expression: 54.57 ± 3.12 PSL/mm^2
vRt, PCP + drug 1 mg/kg/day
  Kv3.1 α-subunit mRNA expression: 46.70 ± 3.99 PSL/mm^2
vRt, PCP + drug 3 mg/kg/day
  Kv3.1 α-subunit mRNA expression: 42.97 ± 2.22 PSL/mm^2
vRt, PCP + drug 10 mg/kg/day
  Kv3.1 α-subunit mRNA expression: 53.69 ± 2.07 PSL/mm^2
